Laboratory results taken from PubChem BioAssay (NCI).
Where “and” joins values, the source holds several entries; their conditions need not be identical. Equal values may be shown once.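 Method: 48-hour compound exposure of cells in 96-well plates, five concentrations, linear interpolation of endpoints. At the GI50, growth is halved. TGI: concentration producing complete growth inhibition.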

Legend:
Test in all cases: NCI tumour cell line growth inhibition, 48 h
OVCAR-4 ovarian = system: OVCAR-4 ovarian
MALME-3M melanoma = system: MALME-3M melanoma
HT29 colon = system: HT29 colon
EKVX NSCLC = system: EKVX NSCLC
NCI/ADR-RES ovarian = system: NCI/ADR-RES ovarian
HS 578T breast = system: HS 578T breast
MDA-MB-231 breast = system: MDA-MB-231 breast
SF-539 CNS = system: SF-539 CNS
IGROV1 ovarian = system: IGROV1 ovarian
RPMI-8226 leukemia = system: RPMI-8226 leukemia

Structure (SMILES)	GI50 (OVCAR-4 ovarian) [µM]	TGI (OVCAR-4 ovarian) [µM]	GI50 (MALME-3M melanoma) [µM]	TGI (MALME-3M melanoma) [µM]	GI50 (HT29 colon) [µM]	TGI (HT29 colon)	GI50 (EKVX NSCLC) [µM]	TGI (EKVX NSCLC) [µM]	GI50 (NCI/ADR-RES ovarian) [µM]	TGI (NCI/ADR-RES ovarian) [µM]	GI50 (HS 578T breast) [µM]	TGI (HS 578T breast) [µM]	GI50 (MDA-MB-231 breast) [µM]	TGI (MDA-MB-231 breast) [µM]	GI50 (SF-539 CNS) [µM]	TGI (SF-539 CNS)	GI50 (IGROV1 ovarian) [µM]	TGI (IGROV1 ovarian) [µM]	GI50 (RPMI-8226 leukemia) [µM]	TGI (RPMI-8226 leukemia)
CNCCN(C)Cc1cn[nH]c1-c1ccc(OC2CC(OCCC3CCOCC3)C2)cc1 (stereo not drawn)	> 85	> 100	28.4	> 100	38.6	> 100 µM	> 77.7	> 100	> 100	> 100	63.1	> 100	40.7	> 100	> 100	> 100 µM	48.5	> 100	44.4	> 100 µM
O=c1c2cc(O)c(O)cc2oc2cc(O)c(C3OC(CO)C(O)C(O)C3O)c(O)c12 (stereo not drawn)		> 100		> 100		> 100 µM		> 100		> 100		> 100		> 100		> 100 µM		> 100		> 100 µM
CCCc1n(Cc2ccc3ccccc3n2)cc[n+]1Cc1ccc2ccccc2n1	0.445	18.3	1.17	7.51	1.61	11.4 µM	5.67	> 79.6	> 100	> 100	3.54	23	2.11	8.47	2.14	13.4 µM	1.48	15.1	0.362	7.41 µM
COc1cc2c(cc1O)C1CC(CC3CCCCN31)OC(=O)/C=C\c1ccc(O)c-2c1 (stereo not drawn)		> 100		40.2		50.4 µM		> 100		75.7		57.5		64.8		34.6 µM		> 100		89.8 µM
CCN(CCO)CCCOc1ccc2c(Nc3cc(CC(=O)Nc4cccc(F)c4)[nH]n3)ncnc2c1	19.4	> 100	8.04	26.8	13.4	66.2 µM and > 10 µM	84.1	> 100	> 100	> 100	8.15	> 60.5	19.2	> 51.5		22.2 µM and > 2.7 µM	26.1	> 93.1	15.4	47.8 µM and > 2.17 µM
COC(=O)C1(C)CCCC2(C)c3cc(OC)ccc3C(=O)C(Br)C12 (stereo not drawn)				9.71		> 10 µM		> 10		> 10		> 10		> 10		> 10 µM		> 10		6.53 µM
Cc1cn2c(/C=C3/C(=O)Nc4ccc(Cl)cc43)c(C)nc2s1	> 39.3	> 54	1.22			> 56.8 µM	12.5	> 100	0.0211		0.222	0.852	0.678	24.8	0.124	0.692 µM	2.5	99.4	0.0137	> 100 µM
Cc1[nH]n(-c2cccc(Cl)c2)c(=O)c1/C=C1\C=c2ccccc2=CC1=O	> 100	> 100	29.2	> 100	> 100	> 100 µM	> 100	> 100	> 100	> 100	32.6	> 100	36.1	> 100		> 100 µM	27.1	> 100	> 100	> 100 µM
CC[C@@]1(O)C(=O)NCc2c1cc1n(c2=O)Cc2cc3c(NC(C)=O)cccc3nc2-1	> 100	> 100	> 100	> 100	> 100	> 100 µM	> 100	> 100	> 100	> 100	> 100	> 100	> 100	> 100	> 100	> 100 µM	> 100	> 100	> 30.3	> 100 µM
COC(=O)[C@]12CC[C@@H](C)[C@H](C)[C@@H]1C1=CC[C@@H]3[C@@]4(C)CC(=O)[C@H](O)[C@@](C)(CO)[C@@H]4C(=O)C[C@@]3(C)[C@]1(C)CC2	11	25.1	4.52	22	14.5	30.4 µM	14.8	29.2	12.1	32.4	7.98	30.4	13.6	29.2	16.2	31.6 µM	12.7	28.1	0.53	19.4 µM
O=C(Nc1ccccc1)Nc1ccc(Cl)c(Cl)c1	3.34	71.5	2.86	21.4	2.85	20.2 µM	2.93	> 100	3.05	83.8	2.9	29	3.9	25.4			3.63	> 100	2.83	9.83 µM
O=C(/C=C/c1ccccc1)OCC1=C[C@@H](O)[C@@H]2C=CO[C@@H](OC3OC(CO)C(O)C(O)C3O)[C@H]12 (stereo partly drawn)		> 100		> 100		> 100 µM		> 100		> 100		> 100		> 100		> 100 µM		> 100		> 100 µM
COc1cc(NC(=O)c2ccccc2Nc2ccnc(C(F)(F)F)c2)cc(OC)c1OC	30.6	> 100	82.2	> 100	65	> 100 µM	48.3	> 100	32.3	> 100	58.8	> 100	> 100	> 100	> 100	> 100 µM	35.1	89.7	36.3	> 100 µM
CC/C(=N/N=C(N)N)c1ccc(NC(=O)Nc2ccc(/C(CC)=N/N=C(N)N)cc2)cc1	6.08	44.8	8.24	54.5	7.12	28.1 µM	6.55	39.6	24.7	> 100	22.6	> 100	6.88	28.1	8.04	35.9 µM	3.15	14.8	1.62	8.85 µM
COc1c2ccccc2c(O)c2c(=O)ccn(C)c12	30.3	> 92	2.37	5.46	16.5	> 100 µM	17.9	79.2	4.62	30	12.2	61.5	8.66	> 61.4	11.5	89.6 µM	30.9	> 100	5.96	> 100 µM
Cc1cc2c(cc1Cl)N1C(=O)NS(=O)(=O)N=C1NS2(=O)=O	> 100	> 100	> 100	> 100	> 100	> 100 µM	> 100	> 100	> 100	> 100	> 100	> 100	> 100	> 100	> 100	> 100 µM	> 100	> 100	> 100	> 100 µM
COc1cc(-c2nn(-c3cccc(NC(=O)CCN4CCN(C)CC4)c3)cc2-c2ccncc2)ccc1Cl	1.73	11.4	0.847	2.36	0.371	1.64 µM	2.13	12.6	2.62	8.76	1.41	6.39	1.69	3.66	1.55	3.06 µM	2.37	15.6	1.77	4.56 µM
CCOC(=O)c1cc(-c2ccccc2)[nH]c1N/N=C/c1c(Cl)cccc1Cl	13.4	> 100	3.9	> 100	0.836	16.3 µM	5.96	> 100	0.509	14.6	0.538	37.2	3.7	25.4	0.467	3.73 µM	0.752	29.3	2.11	11.3 µM
Nc1ccc(C(=O)Nc2ccccc2N)cc1		> 76.5		30.3		> 100 µM		> 100		19.6		> 100		> 100		> 100 µM		> 100		98.8 µM
N=C1C(c2nc3ccccc3s2)=C(O)CN1c1cc(Cl)cc(Cl)c1	37.4	> 100	29.4	> 100	> 100	> 100 µM	> 100	> 100	> 100	> 100	16.1	64.8	23.6	> 100	34.3	> 100 µM			> 100	> 100 µM
CC(C)COC(c1ccc2c(c1)OCO2)C(C)Br (stereo not drawn)		> 100		36.1		45.5 µM		76		90.2		64.6		> 100		71.3 µM		> 100		43 µM
FC(F)(F)c1ccc(NCc2nc3ccccc3[nH]2)cc1	27.1	> 100	23.9	69.5	27.9	81.3 µM	26.8	> 100	21.9	67.2	23.3	79	22.8	78.2	36.8	> 100 µM	39.9	> 100	20.7	67.8 µM
COc1ccc(/C=C2\CCC(Cc3ccccc3)(CN(C)C)C2=O)cc1 (stereo not drawn)		> 100		> 100		> 87.8 µM		> 100		> 100		> 100		> 100		> 100 µM		> 100		62.9 µM
Cc1ccc(S(=O)(=O)CC2(Br)CCc3ccccc3C2=O)cc1 (stereo not drawn)		50		68.6		58.6 µM		> 100		> 100		> 100		84.9		> 100 µM		41		> 100 µM
N[C@@H](CSSC[C@H](N)C(=O)N1CCn2cc(-c3ccccc3)nc2[C@@H]1CC1CCCCC1)C(=O)N1CCn2cc(-c3ccccc3)nc2[C@@H]1CC1CCCCC1	2.15	4.8	1.5	2.99	1.63	3.42 µM	1.34	2.81	2.95	9.32	3.1	> 100	1.74	3.68	1.75	3.55 µM	2.41	5.96	2.35	5.68 µM
CC(C)[C@H](C(=O)O[C@@H]1/C=C/C(=O)O[C@@H](C)CCC/C=C/[C@@H]2C[C@H](O)C[C@H]21)N(C)C	8.7	> 94.5	6.97	32.1	4.67	> 36 µM	8.45	> 65.3	14.9	> 87.8	2.2	45.9	12.8	51.9	10.2	58.9 µM	22.8	> 71.3	8.12	36.8 µM
COc1ccc2c(c1)C(=O)c1c-2c(N2CCN(C(=O)CCNCCNCCO)CC2)nc2ccccc12	21.2	42.2	26.6	58	4.6	16.7 µM	14.5	30.1	18	36.1	16.1	35.4	13.5	30.9	14.5	29.9 µM	12.7	45.2	11.3	33.2 µM
Fc1ccc(C2C3CCOc4c(ccc5ccccc45)C3=NN2c2ccccc2)cc1 (stereo not drawn)	> 100	> 100	> 38.7	> 100	> 100	> 100 µM	> 87.4	> 100	> 100	> 100	> 88.6	> 100	43.8	> 100			> 100	> 100	63.5	> 100 µM
